Measurements taken from the pKa sets of Baltruschat and Czodrowski (2020).
Where a SMILES comes first, the peptide text is derived from it.

Conditions: acidic group

SMILES | pKa
Oc1c(Br)cc(Br)c2cccnc12 | 7.3
O=CC1c2ccccc2C(=O)c2ccccc21 | 6
C=CCc1ccc2cccnc2c1O | 10.1
N#Cc1ccc(NS(=O)(=O)c2ccccc2)cc1 | 6.78
OC(O)=C1SCc2ccccc21 | 5.32
O=c1cc[nH]cc1 | 11.1
O=C(O)CNC(=O)c1ccccc1O | 3.63
Oc1ccc(Nc2ccc(O)cc2)cc1 | 9.44
CN(C)c1cccc[n+]1O | 2.27
O=C1CC(=O)NC(=S)N1 | 4.15
CC(C[Si](C)(C)CCCCl)C(=O)O (centres undefined) | 5.05
c1ccc(-c2cn[nH]c2)cc1 | 13.6
CC(=O)c1c(C)cc(C)cc1C | 10.7
Cc1ccc(OCC(=O)O)cc1 | 3.15
CC#CC#CC(=O)O | 1.94
Cn1ncc2c(=O)[nH]cnc21 | 9.26
CCc1ccccc1C(=O)O | 3.79
CC(C)(C)OOCCC(=O)O | 4.36
Oc1[nH]c2ccccc2[nH+]1 | -1.7
[NH3+]C(Cc1ccc[nH+]c1)C(=O)O (centres undefined) | 1.69
O=[N+]([O-])c1ccccc1-c1nnn[nH]1 | 2.98
O=C(O)C1CCCCn2nnnc21 (centres undefined) | 3.4
Oc1ccc2c(c1)Cc1ccccc1-2 | 9.51

SMILES | pKa
CCCCCC(=O)CC(C)=O | 9.2
O=[N+]([O-])c1ccc2ccc(O)cc2c1 | 8.81
CC1=NS(=O)(=O)c2cnccc2N1 | 7.6
OCc1nc2ccccc2[nH]1 | 12.1
Cc1cc(C)c(C(C)C)cc1O | 10.8
Cc1cccc(O)c1 | 10
O=[N+]([O-])/C=C/c1cccc(O)c1 | 9.05
C[NH+](C)CCCCCNC(=O)/C=N/O | 8.88
CC(C)c1csc(C(=O)O)c1 | 3.64
NNC(=O)C(F)(F)C(F)(F)F | 7.92
NC(=O)C1CCCCN1 (centres undefined) | 8.9
NNC(=O)c1ccccc1N | 12.8
Nc1ccccc1[N+](=O)[O-] | 13.4
CC(C)(C)C(=O)NC(O)C(Cl)(Cl)Cl (centres undefined) | 14.7
O=C(O)[C@]1(Cl)[C@@H]2CCC[C@@H]21 | 2.82
C[S+](C)c1ccc(O)cc1 | 7.31
C[N+](C)(C)/N=C(/O)c1ccccc1 | 4.29
CC1=CC(=O)C(C(C)C)=C/C1=N/c1ccc(O)cc1 | 8.8
COc1cc(OC)nc(NS(=O)(=O)c2ccc(O)cc2)n1 | 7.29
CN1C(=O)C2(CCCCC2)NC1=S | 11.2
CCc1nnn[nH]1 | 5.59
O=[N+]([O-])c1cccc(-c2nnn[nH]2)c1 | 3.25
Nc1ccc(S(=O)(=O)Nc2ccn(-c3cccc([N+](=O)[O-])c3)n2)cc1 | 7.03

SMILES | pKa
O/N=C/c1ccc(O)cc1O | 8.05
Nc1c2ccccc2[nH+]c2c(O)cccc12 | 7.05
CCP(=O)(CC)CC=O | 10.9
Cc1ccc[n+](O)c1 | 1.08
CC(=O)c1ccc(F)cc1 | 18.5
Cc1csc(NS(=O)(=O)c2ccc(N)cc2)n1 | 7.12
CCCOc1ccccc1C(=O)O | 4.24
C=CCc1ccc(O)c(OC)c1 | 10
CCCCOc1cccc(C(=O)O)c1 | 4.25
[O-]c1cccc(O)c1 | 11.3
Cc1ccc(NC(=S)c2cccc(Br)c2)cc1 | 10.9
O=C1NC(=O)/C(=C/c2ccccc2)N1 | 8.6
CC(=O)[n+]1cccc(C#N)c1 | 1.62
Cc1cccc(CCCCCCCC(=O)O)[nH+]1 | 4.6
Cc1ccc(S(=O)(=O)N(CC[NH2+]CC(=O)O)CC(=O)O)cc1 | 1.99
O/N=C/NO | 10.7
ONc1ccccc1 | 10.7
COc1ccc(/C=C\C(=O)O)cc1 | 4.03
Cc1cccc(C)c1NC(=S)c1ccccc1 | 10.8
COc1ccccc1CCC(=O)O | 4.8
CNc1ncnc2[nH]ncc12 | 10.6
CCNC(O)=S | 0.92
O=C(O)C1(O)CCC1 | 3.88

SMILES | pKa
CC(C)(C)CC#CC(=O)O | 2.54
N#CCCC(=O)O | 3.98
Nc1cc(O)ccc1O | 10.1
O=C(Oc1ccc([N+](=O)[O-])cc1[N+](=O)[O-])c1ccc(O)cc1 | 7.68
Oc1ccc(O)c(Cl)c1 | 8.81
[O-][n+]1ccc(NO)c2ccccc21 | 9.52
O=C(O)C[Se]c1ccc([N+](=O)[O-])cc1 | 3.46
Cc1cc(Nc2ccc(O)cc2)cc(C)c1O | 10
O=[N+]([O-])c1cc(O)ccc1O | 7.42
CC[N+](O)(CC)c1ccccc1 | 4.53
CC(C)[NH2+]CC(=O)O | 2.35
Oc1cc[nH+]cc1O | 3.6
Cc1cccc(Cl)c1C(=O)O | 2.59
O=c1c2[nH]cnc2ncn1O | 5.66
O=C1NC(=O)[C@@H]2CCC[C@H]12 | 9.53
Cc1ccc(N[N+](=O)[O-])cc1 | 4.88
CN1C(=O)NCc2[nH]cnc21 | 11.1
C=C[C@@H]1CNC(=S)O1 | 10.2
NC(=O)CC(=O)O | 3.61
C=CC#CCC(=O)O | 3.41
COc1ccc(/C(=C\C(=O)c2ccc(S(=O)(=O)[O-])cc2)CC(=O)c2ccc(S(=O)(=O)[O-])cc2)cc1S(=O)(=O)[O-] | 10.7
O=Cc1cccc(B(O)O)c1 | 7.8

Same assay, conditions: basic group

SMILES | pKa
CC1(C)CC(NCCO)CC(C)(C)N1 | 10.5
Oc1c(Br)cc(Br)c2cccnc12 | 2.6
C1CNCCNCC[NH2+]C1 | 6.75
O=C(CCN1CCCCC1)c1ccccc1 | 9.23
COc1nccc(C)n1 | 2.1
C=CCc1ccc2cccnc2c1O | 4.52
Nc1ccccn1 | 6.95
CNc1ncccn1 | 3.82
COc1ccncc1 | 6.65
c1ccc2c3c([nH]c2c1)CNCC3 | 8.4
Nc1cc2ccccc2cn1 | 5.05
Cc1cccnc1N | 7.24
CC(=O)n1ccnc1 | 3.6
COc1cc(OC)c(OC)c(C(=O)N[C@H]2C[C@H]3CC[C@@H](C2)N3Cc2ccccc2)c1 | 8.84
CC(=O)N(N=C(C)C)C1CCN(C)CC1 | 8.6
CCCCCCNc1ccccc1 | 5.21
Cc1ccccc1C(=NCCCC[NH+](C)C)c1ccccc1C | 5.18
Cc1n[nH]c2cc(N)ccc12 | 4
Cc1ccc([C@@H](OCCN(C)C)c2ccccc2)cc1 | 8.5
Nc1ccc([N+](=O)[O-])c2ccccc12 | 0.53
Cc1ccc(NC(=O)CN2CCCCC2)c(C)c1 | 7.8
C1CCCNCC1 | 11

SMILES | pKa
Cn1cccn1 | 2.48
Cc1ccccc1CN(C)C | 8.71
[NH3+]CC(=O)NCCc1c[nH]cn1 | 6.76
CN1CCCC1c1cncc2[nH]c3ccccc3c12 (centres undefined) | 8.02
c1ccc2cnncc2c1 | 3.47
Cc1cc(C)c2ccc3cccnc3c2n1 | 5.96
CN1CCCC(C(=O)[O-])C1 (centres undefined) | 9.7
CCCCSCCN(CC)CC | 8.43
Brc1cnc2c(ccc3cc(Br)cnc32)c1 | 3.9
CNNC1CCN(C(C)C)CC1 | 9.1
CNc1c(C)cccc1C | 6.12
OCCN1CCNCC1 | 9.33
C[NH2+]CCNCCN | 9.57
Cc1cc2nccc(NCCC[NH+](C)C)c2cc1[N+](=O)[O-] | 7.38
CC(C)CCCC(C)N (centres undefined) | 10.3
CN(C)CCOCC[NH+](C)C | 8.21
OCc1nc2ccccc2[nH]1 | 4.82
Nc1cccc2[nH]c(Cc3ccccc3)nc12 | 8.6
Cc1ccccc1C(=NCC[NH+](C)C)c1ccccc1C | 2.82
Cc1cc(C)c2nccc(NCCC[NH+](C)C)c2c1[N+](=O)[O-] | 6.37
C[Si](C)(C)CNC1CCCCC1 | 11
CNCCO | 9.91

SMILES | pKa
N/C(CC/C(N)=N/O)=N\O | 5.97
CCCN(CC(C)O)CC(O)CC (centres undefined) | 9
Nc1nccc(-c2csc(N)n2)n1 | 4
N[C@H]1CCc2ccccc21 | 9.21
NNC(=O)c1ccccc1N | 3.47
Cc1cn2nc(-c3ccccc3)ccc2n1 | 5.09
Nc1ccccc1[N+](=O)[O-] | -0.24
Nc1nc([Se-])c2ncn([C@H]3O[C@@H](CO)[C@H](O)[C@@H]3O)c2n1 | 7.68
Cc1nnc(C)c(C)n1 | 2.85
Cc1cnc(C)c(C)n1 | 2.65
Cc1cccc(C(C)c2c[nH]cn2)c1C (centres undefined) | 7.04
COc1ccc2c3c1O[C@H]1[C@@H](O)C=C[C@H]4[C@@H]([C@H]2O)N(C)CC[C@@]341 | 7.12
CN(C)CCCNc1ccnc2ccccc12 | 8.85
Cc1ccccc1/C(=N/CCCN(C)C)c1ccc2ccccc2c1 | 8.9
Nc1cn[nH]c1 | 5.57
O=C([O-])C(CO)NCc1cc(Cl)ccc1[O-] (centres undefined) | 10.2
CCCCCCCCN1CCCCC1 | 8.28
CCN1CCC[C@@H]1CNC(=O)c1c([O-])c(Br)cc(Br)c1OC | 9.12
Nc1ccc2cnc3ccccc3c2c1 | 6.88
NC(Cc1ccccc1)c1nnn[n-]1 (centres undefined) | 8.18
COc1ccc([N+](=O)[O-])c2cccnc12 | 3.55
COc1cccc(C(=N)c2ccccc2)c1 | 6.59

SMILES | pKa
CN(C)CC(Cl)CCl (centres undefined) | 7.5
CCCCNCC(=O)[O-] | 10.2
CNC(=O)c1ccncc1 | 3.8
CC(C)(C)N1NC2CCC1CC2 | 9.54
O/N=C/NO | 4.05
ONc1ccccc1 | -0.32
C[C@H](N)Cc1ccc(O)cc1 | 9.3
CCCCCCCCN(CCO)CC(O)CC (centres undefined) | 8.3
CNc1ncnc2[nH]ncc12 | 4.53
CCCCCNc1ccccc1 | 5.2
Nc1ccc(-c2ncc(-c3ccc(Cl)cc3)o2)cc1 | 2.87
Brc1ccc(-c2ncc(-c3ccccc3)o2)cc1 | 0.4
CN(C)CC[N-]S(=O)(=O)c1cccc2c(N(C)C)cccc12 | 10.9
CCOC(=O)N1CCNCC1 | 8.28
O=C(Cc1ccccc1Nc1c(Cl)cccc1Cl)OCCCN1CCOCC1 | 7.99
Nc1ccc2c(c1)CCCC2 | 5.2
Nc1cccc2nccnc12 | 2.62
COc1cc2c(cc1OC)[C@]13CCN4CC5=CCO[C@H]6CC(=O)N2[C@H]1C6[C@@]5(S(=O)(=O)[O-])C[C@H]43 (some centres undefined) | 7.45
O=C([O-])[C@@H]1CCCN1C(=O)[C@@H]1CCCN1 (H-Pro-Pro-OH) | 9.27
[O-][n+]1ccc2ccccc2c1 | 1.01
Cc1cnc2ccccc2n1 | 0.95
CC(C#N)CN (centres undefined) | 7.75
